Test results reported in publication PMC12349723, “Computationally accelerated identification of P-glycoprotein inhibitors” (PLOS One, 2025).
Read-outs that look alike come from different tables or passages of the source.

Tested on: DU145-TXR cells
Assay: MTT viability assay, reversal of MDR (re-sensitization to paclitaxel) in P-gp overexpressing DU145-TXR cells
Assay type: cell-based, human
Details: for % Survival, mean / % Survival: 15 µM compound + 500 nM PTX (Paclitaxel, Taxol); for % Survival, mean / % Survival / viability at 15 µM: DU145-TXR; for viability at 15 µM: Homo sapiens, 15 µM Compound Alone
Description: The chemotherapeutic sensitive DU145 human prostate cancer cells and the multidrug resistant sub-line, DU145-TXR, were generous gifts from Dr. Evan Keller (University of Michigan, Ann Arbor, MI). The MDR, P-gp overexpressing DU145-TXR cells were maintained under positive selection pressure by supplementing complete medium with 10 nM paclitaxel (Acros Organics, NJ). In addition to the aforementioned cell lines, the chemotherapeutic sensitive A2780 ovarian cancer cells (93112519, Sigma) and the multidrug resistant A2780-ADR (93112520, Sigma) were maintained in complete RPMI media consisting of RPMI-1640 with L-glutamine, 10% fetal bovine serum (FBS; Corning), 100 U/mL penicillin and 100 μg/mL streptomycin in a humidified incubator at 37 °C and 5% CO2. The MDR, P-gp overexpressing A2780-ADR cell line was maintained under positive selection pressure by supplementing complete medium with 100 nM doxorubicin (Fisher Scientific, NJ). The non-cancerous HFL1 (human lung fibroblast) cell line cell line was a generous gift from Dr. Robert Harrod (Southern Methodist University, Dallas, TX) and was maintained in complete F12K media consisting of F12K with 10% fetal bovine serum, 100 U/mL penicillin, and 100 µg/mL streptomycin (Gibco). Flasks and 96 well plates that were used with the non-cancerous line HFL1 were pre-treated with 0.1 mg/ml Collagen Type 1 (Gibco) and rinsed with PBS (Fisher).
Culture of the DU145, DU145-TXR, and HFL1 cell lines was performed as described in [8]. Culture of the A2780 and A2780-ADR cell lines was performed as described in [9]. MTT assays were performed as described in [8] with minor modifications. LC-MS/MS accumulation assays were performed as described in {Nanayakkara, 2018 #173} [9] with some modifications. […] The inhibitor concentration was lowered to 15 µM here, as the goal of the study was to identify compounds that were effective in reversing MDR at low concentrations, and to determine if the expanded virtual-assisted methods improved on our first-draft attempt. Compounds 56–98 were pre-screened using Resazurin cell viability assays: cells were incubated with 15 µM compound with or without 500 nM PTX for 48 hours, after which cell survival was assessed similar to [39]. Data represent the mean of two separate experiments, with n = 3 samples per experiment (n = 6 total) (S4 Table). The top performing compounds from this initial screen were re-tested with MTT viability assays against DU145-TXR cells, as described below.
MTT assays measure the reduction of yellow, water soluble 3-(4,5-dimethylthiazol-2-yl)-2,5-diphenyltetrazolium bromide (MTT) to blue, insoluble formazan crystals by cellular reductase processes in living cells. Cells were trypsinized from monolayers and seeded in complete medium in 96 well plates. Cancerous cell lines (DU145, DU145-TXR, A2780, A2780-ADR) were seeded at 3,000 cells per well in complete RPMI medium. The non-cancerous HFL1 line was seeded at 4,000 cells per well in complete F12K medium, in collagen-treated plates (Collagen Type 1, Gibco). Cells were incubated with experimental compounds for 48 hours at 37 °C and 5% CO2 in a humidified incubator. At 48 hours, MTT was added (20 µL/well of 5 mg/mL MTT in PBS) to each well. After incubation for 4 hours, the media was removed, and the formazan crystals were dissolved in 100 µL DMSO per well. Plates containing the semi-adherent A2780 or A2780-ADR lines were spun at 1400 rpm for 3 minutes prior to aspiration of media, and the addition of DMSO. Plates were shaken for 10 minutes at 500 rpm on an Orbital shaker (LabDoctor from MidSci, St Louis, MO). The absorbance was measured at 570 nm using a Bio-Tek Cytation 5 (Bio-Tek, Winooski, VT). The measured absorbance value was correlated with the number of metabolically active cells in that well, corrected for absorbance of media. […]

[1] = mean of 8 samples, read-out: % Survival, mean
[2] = trial 1, sample 1, read-out: % Survival
[3] = trial 1, sample 2, read-out: % Survival
[4] = trial 1, sample 3, read-out: % Survival
[5] = trial 1, sample 4, read-out: % Survival
[6] = trial 2, sample 1, read-out: % Survival
[7] = trial 2, sample 2, read-out: % Survival
[8] = trial 2, sample 3, read-out: % Survival
[9] = trial 2, sample 4, read-out: % Survival

| Compound | % Survival, mean (mean of 8 samples) | % Survival (trial 1, sample 1) | % Survival (trial 1, sample 2) | % Survival (trial 1, sample 3) | % Survival (trial 1, sample 4) | % Survival (trial 2, sample 1) | % Survival (trial 2, sample 2) | % Survival (trial 2, sample 3) | % Survival (trial 2, sample 4) | viability at 15 µM [1] | viability at 15 µM [2] | viability at 15 µM [3] | viability at 15 µM [4] | viability at 15 µM [5] | viability at 15 µM [6] | viability at 15 µM [7] | viability at 15 µM [8] | viability at 15 µM [9] | Re-sensitization of DU145-TXR cells to PTX (reversal of MDR) (15 µM compound with or without 500 nM PTX, 48 h, MTT, re-sensitization = 30% or greater decrease in cell viability) |
| --- | --- | --- | --- | --- | --- | --- | --- | --- | --- | --- | --- | --- | --- | --- | --- | --- | --- | --- | --- |
| Nc1nonc1-n1nnc(C(=O)N/N=C/c2c3ccccc3cc3ccccc23)c1COc1ccc(F)cc1 [Compound 60, Nc1nonc1-n1nnc(C(=O)N\N=C\c2c3ccccc3cc3ccccc23)c1COc1ccc(F)cc1] | 92.8% | 84% | 102% | 83% | 120% | 83% | 92% | 89% | 89% | 93.6% | 100% | 103% | 90% | 96% | 93% | 88% | 95% | 83% | – |
| CCN1CCN(Cc2c(C(=O)N/N=C3/C(=O)N(C)c4ccccc43)nnn2-c2nonc2N)CC1 [Compound 61, CCN1CCN(Cc2c(nnn2-c2nonc2N)C(=O)N\N=C2\C(=O)N(C)c3ccccc23)CC1] | 51.6% | 62% | 67% | 64% | 77% | 33% | 35% | 31% | 44% | 99.3% | 118% | 117% | 119% | 123% | 93% | 75% | 77% | 72% | re-sensitized DU145-TXR cells to PTX |
| O=C(c1cc2ccccc2[nH]1)N1CCN(S(=O)(=O)c2cccc3nonc23)CC1 [Compound 66, O=C(N1CCN(CC1)S(=O)(=O)c1cccc2nonc12)c1cc2ccccc2[nH]1] | 81.6% | 89% | 94% | 92% | 90% | 73% | 76% | 68% | 70% | 84.2% | 87% | 96% | 92% | 90% | 76% | 73% | 78% | 82% | – |
| COc1ccc(OC)c(NC(=O)c2nnn(-c3ccc4noc(-c5ccccc5)c4c3)c2C)c1 [Compound 71, COc1ccc(OC)c(NC(=O)c2nnn(c2C)-c2ccc3noc(-c4ccccc4)c3c2)c1] | 41.6% | 48% | 45% | 45% | 51% | 33% | 33% | 36% | 42% | 33.8% | 44% | 33% | 39% | 41% | 36% | 25% | 28% | 25% | – |
